# Assay results taken from US20120270293A1, “STAND[…] TISSUE SPECIMEN PR[…] […] T[…]” (priority 2009, published 2012).
# Biological target: RNase A (Bos taurus, UniProt P61823)
# Settings: free solution reaction
# Method: FIG. 13. RNase A at designated amount was incubated with NBF at RT or 4° C. for 5 min and then mixed with 2 μg yeast tRNA and incubated at room temperature for 30 min for RNase A digestion and separated by 2% agarose gel. The tRNA molecules were between 50-100 nucleotides in length.
# We have designed a series of direct forward biochemistry experiments to compare various chemical reagents such as formalin, RNA Later, methanol/alcohol, as well as heating conditions (boiling or autoclaving) in inhibiting the RNase bioactivity. […] We also compare the inhibition ability of formalin at room temperature and 4 degree C.
# Chain of RNase A (P61823 27-150): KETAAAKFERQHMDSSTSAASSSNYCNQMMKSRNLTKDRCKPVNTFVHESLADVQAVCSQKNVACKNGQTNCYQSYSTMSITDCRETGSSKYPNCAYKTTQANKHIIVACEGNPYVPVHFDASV
compound,measurement,setting,value
C=O [formalin],inhibiting the RNase bioactivity,"compared with RNA Later, methanol/alcohol, boiling or autoclaving",best RNase inhibitor
same,inhibition ability of formalin at room temperature and 4 degree C,room temperature versus 4 degree C,No difference
